Reference: patent US11518754B2, “Radiolabeled pharmaceuticals and methods of making and using same” (YALE UNIVERSITY, priority 2017, dated 2022)
Where “and” joins values, the source holds several entries; their conditions need not be identical. Equal entries are not always repeated.

What was measured:
[1] = Plasma free fraction (fp) by ultrafiltration method; format: in vitro ADME, rhesus monkeys (Macaca mulatta); conditions: plasma (from arterial blood samples), rhesus monkey plasma
[2] = molecular target: SV2A (Macaca mulatta, UniProt H9EQH8); assay: PET imaging studies in rhesus monkeys; conditions: for Binding potential (BPND): from VT, centrum semiovale as reference region; for Displacement of radiotracer binding by levetiracetam: levetiracetam 30 mg/kg i.v. infused 60 or 90 min post injection of the radiotracer; for Uptake of radiotracer in blocking studies: levetiracetam (30 mg/kg) or UCB-J (150 μg/kg) i.v. 10 min before radiotracer injection
Protocol: (§1) Experiments were performed in rhesus monkeys (Macaca mulatta). Rhesus monkeys were sedated using intramuscular (i.m.) injection of ketamine and glycopyrrolate approximately 2 hours before the PET scan and anesthesia was maintained with isoflurane (1.5%-2.5%) for the duration of the experiments. Baseline PET scans were obtained after intravenous (i.v.) injection of ^11C-3, ^18F-3, ^18F-4, ^18F-5, ^18F-10, ^18F-11, or ^18F-12.
(§2) Arterial blood samples were collected during the PET scans to calculate the plasma input function and to determine the unmetabolized parent fraction using the automatic column-switching HPLC system. Plasma free fraction (fp) was measured in triplicate using the ultrafiltration method.
(§3) PET scans of the brain were acquired using the FOCUS 220 PET scanner (Siemens Preclinical Solutions) with a reconstructed image resolution of approximately 1.5 mm. After a transmission scan, the radioligand was injected i.v. as a 3 min slow bolus by an infusion pump (PHD 22/2000; Harvard Apparatus). List-mode data were acquired for 120-180 min and binned into sinograms with an applicable number of frames. Scan data were reconstructed with a Fourier rebinning/filtered backprojection algorithm with corrections for attenuation, scanner normalization, radiation scatter, and randoms. Regions of interest were manually delineated on a single representative anatomic rhesus monkey MR image registered to a template image. The regions used in this study were amygdala, brain stem, caudate, centrum semiovale, cerebellum, cingulate cortex, frontal cortex, globus pallidus, insular cortex, nucleus accumbens, occipital cortex, pons, putamen, temporal cortex, and thalamus. Registration parameters were obtained to apply the regions of interest to individual PET scans, and regional time-activity curves were generated. Regional time-activity curves of the brain were analyzed with the 1-tissue-(1T) compartment model. Fit quality was compared with the 2-tissue model and the multilinear analysis method to calculate VT.
(§4) Typical injected radioactivity amount was 0.5-5 mCi per injection, with typical injected mass amount of 1-10 μg.
(§5) Specific binding to SV2A was further examined for ^11C-3, ^18F-3, and ^18F-11 in blocking studies, where levetiracetam or UCB-J ((R)-3) was i.v. infused before injection of the radiotracers.

[3] = PET imaging studies in rhesus monkeys; conditions: rhesus monkey, in vivo, Distribution volume (VT), 1T model
Protocol: as §1, §2, §3, §4, §5

[4] = molecular target: T1, SV2A (Homo sapiens (Human), UniProt Q7L0J3); assay: PET imaging with (R)-11C-3 in patients with AD dementia and MCI; format: in vivo; conditions: AD/MCI patients vs cognitively normal subjects
[5] = molecular target: T1, SV2A; assay: PET imaging with (R)-11C-3 in patients with Parkinson's disease; format: in vivo; conditions: PD subjects vs age-matched healthy controls
[6] = molecular target: SV2A (Papio anubis, UniProt A0A096NYL0); assay: PET measurement in an olive baboon; format: in vivo, olive baboon (Papio anubis); conditions: gray matter regions, baboon brain
Protocol: Experiments were conducted in one olive baboon (P. anubis). […] PET images of the brain were acquired using a Siemens Biograph mCT system (Siemens Medical Solutions). […] List-mode data were acquired for 120 min and binned into sinograms with the following frame timing: 6×30 sec; 3×1 min; 2×2 min; and 22×5 min.
PET data were reconstructed with a TrueX+TOF algorithm with corrections for attenuation, normalization, scatter and randoms. Regions of interest (ROIs) were manually delineated on a single representative anatomical baboon magnetic resonance image (MRI) registered to a template image. […] MRI-to-PET registration parameters were obtained to apply the ROIs to individual PET scans, and regional time-activity curves (TACs) were generated. VT values were estimated using a one-tissue (1T) compartment model with the metabolite-corrected input function.
Arterial blood samples were collected to determine the plasma input function, including measurement of the unmetabolized ^11C-3 fraction. The free fraction of ^11C-3 in plasma was determined in arterial blood samples taken immediately before ^11C-3 injection.

[7] = molecular target: T1, SV2A; assay: PET imaging with (R)-11C-3 in patients with temporal lobe epilepsy
Protocol: PET imaging with (R)-^11C-3 was performed in healthy human subjects and patients with various disorders to determine if SV2A imaging can be used as an in vivo biomarker to detect changes in synaptic density in human diseases.
PET imaging with (R)-^11C-3 was carried out in ten healthy control subjects and nine patients of temporal lobe epilepsy (TLE) with mesial temporal sclerosis (MTS).

[8] = rhesus monkey brain after i.v. injection

Chain of SV2A (Macaca mulatta, UniProt H9EQH8) (H9EQH8 1-742): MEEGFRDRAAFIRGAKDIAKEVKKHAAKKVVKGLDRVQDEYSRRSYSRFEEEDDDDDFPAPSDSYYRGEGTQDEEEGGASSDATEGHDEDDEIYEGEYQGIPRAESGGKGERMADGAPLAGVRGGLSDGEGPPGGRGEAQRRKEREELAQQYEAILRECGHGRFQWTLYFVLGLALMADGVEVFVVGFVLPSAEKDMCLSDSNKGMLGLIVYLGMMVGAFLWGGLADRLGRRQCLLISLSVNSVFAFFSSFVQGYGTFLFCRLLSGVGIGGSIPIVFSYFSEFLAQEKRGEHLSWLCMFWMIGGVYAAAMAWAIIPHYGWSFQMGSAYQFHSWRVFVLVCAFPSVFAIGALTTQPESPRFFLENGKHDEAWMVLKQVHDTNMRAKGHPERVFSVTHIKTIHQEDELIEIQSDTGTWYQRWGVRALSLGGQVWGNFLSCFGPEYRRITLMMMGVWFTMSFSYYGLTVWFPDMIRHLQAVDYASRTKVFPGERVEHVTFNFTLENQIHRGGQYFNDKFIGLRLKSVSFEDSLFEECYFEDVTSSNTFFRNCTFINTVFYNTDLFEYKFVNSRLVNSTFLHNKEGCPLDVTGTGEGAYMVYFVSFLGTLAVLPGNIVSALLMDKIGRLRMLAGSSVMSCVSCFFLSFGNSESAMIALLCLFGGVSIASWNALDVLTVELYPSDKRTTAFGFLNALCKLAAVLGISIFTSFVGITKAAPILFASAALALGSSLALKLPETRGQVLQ
T1 sequence (Q7L0J3 whole entry, looked up): as the sequence (H9EQH8 1-742) above, with S64G, V572I counted along it
Chain of SV2A (Papio anubis, UniProt A0A096NYL0) (A0A096NYL0 1-742): as the sequence (H9EQH8 1-742) above, with G108S counted along it

Cc1cnccc1CN1CC(c2cccc(F)c2)CC1=O (stereo not drawn) [^18F-11, 4-(3-Fluorophenyl)-1-((3-methylpyridin-4-yl)methyl)pyrrolidin-2-one]
fraction unbound [1]: 0.42 ± 0.02 | Binding potential (BPND) ([2]; Amygdala): 1.05 ± 0.29 | Binding potential (BPND) ([2]; Brainstem): 0.53 ± 0.42 | Binding potential (BPND) ([2]; Caudate nucleus): 2.29 ± 0.88 | Binding potential (BPND) ([2]; Cerebellum): 1.59 ± 0.76 | Binding potential (BPND) ([2]; Cingulate cortex): 3.49 ± 1.52 | Binding potential (BPND) ([2]; Frontal cortex): 3.29 ± 1.40 | Binding potential (BPND) ([2]; Globus pallidus): 1.13 ± 0.61 | Binding potential (BPND) ([2]; Hippocampus): 1.58 ± 0.59 | Binding potential (BPND) ([2]; Insular cortex): 3.00 ± 1.21 | Binding potential (BPND) ([2]; Nucleus accumbens): 3.12 ± 1.26 | Binding potential (BPND) ([2]; Occipital cortex): 2.90 ± 1.50 | Binding potential (BPND) ([2]; Pons): 0.46 ± 0.51 | Binding potential (BPND) ([2]; Putamen): 2.21 ± 0.89 | Binding potential (BPND) ([2]; Temporal cortex): 2.63 ± 1.33 | Binding potential (BPND) ([2]; Thalamus): 2.18 ± 0.77 | Displacement of radiotracer binding by levetiracetam [2]: reduced the binding of these tracers to a significant extent | Uptake of radiotracer in blocking studies [2]: reduced to background levels | time to SUV peak in gray matter regions [2, 8]: ≤ 10 min | Kp ([3]; Amygdala): 8.7 ± 2.4 | Kp ([3]; Brainstem): 6.6 ± 2.9 | Kp ([3]; Caudate nucleus): 13.2 ± 2.6 | Kp ([3]; Centrum semiovale): 4.4 ± 1.5 | Kp ([3]; Cerebellum): 10.8 ± 2.6 | Kp ([3]; Cingulate cortex): 18.2 ± 2.2 | Kp ([3]; Frontal cortex): 17.4 ± 2.2 | Kp ([3]; Globus pallidus): 8.8 ± 1.8 | Kp ([3]; Hippocampus): 10.7 ± 2.8 | Kp ([3]; Insular cortex): 16.8 ± 2.6 | Kp ([3]; Nucleus accumbens): 16.4 ± 2.9 | Kp ([3]; Occipital cortex): 15.7 ± 2.7 | Kp ([3]; Pons): 6.4 ± 3.5 | Kp ([3]; Putamen): 13.6 ± 2.3 | Kp ([3]; Temporal cortex): 14.7 ± 2.5 | Kp ([3]; Thalamus): 13.2 ± 2.1

Cc1cnccc1CN1CC(c2cc(F)cc(F)c2)CC1=O (stereo not drawn) [^18F-5, 4-(3,5-Difluorophenyl)-1-((3-methylpyridin-4-yl)methyl)pyrrolidin-2-one]
fraction unbound [1]: 0.42 ± 0.03 | Binding potential (BPND) ([2]; Amygdala): 1.70 ± 1.51 | Binding potential (BPND) ([2]; Brainstem): 0.59 ± 0.57 | Binding potential (BPND) ([2]; Caudate nucleus): 2.09 ± 1.37 | Binding potential (BPND) ([2]; Cerebellum): 2.16 ± 0.15 | Binding potential (BPND) ([2]; Cingulate cortex): 4.49 ± 0.50 | Binding potential (BPND) ([2]; Frontal cortex): 4.26 ± 0.57 | Binding potential (BPND) ([2]; Globus pallidus): 1.04 ± 0.09 | Binding potential (BPND) ([2]; Hippocampus): 2.36 ± 0.51 | Binding potential (BPND) ([2]; Insular cortex): 4.16 ± 0.42 | Binding potential (BPND) ([2]; Nucleus accumbens): 3.09 ± 2.04 | Binding potential (BPND) ([2]; Occipital cortex): 3.75 ± 0.11 | Binding potential (BPND) ([2]; Pons): 0.80 ± 0.03 | Binding potential (BPND) ([2]; Putamen): 3.03 ± 0.55 | Binding potential (BPND) ([2]; Temporal cortex): 3.60 ± 0.22 | Binding potential (BPND) ([2]; Thalamus): 3.08 ± 0.96 | Displacement of radiotracer binding by levetiracetam [2]: reduced the binding of these tracers to a significant extent | time to SUV peak in gray matter regions [2, 8]: slower | Kp ([3]; Amygdala): 20.5 ± 6 | Kp ([3]; Brainstem): 15 ± 4 | Kp ([3]; Caudate nucleus): 31.9 ± 4.8 | Kp ([3]; Centrum semiovale): 8.3 ± 2.4 | Kp ([3]; Cerebellum): 26.1 ± 6.5 | Kp ([3]; Cingulate cortex): 45 ± 9.2 | Kp ([3]; Frontal cortex): 43 ± 8.1 | Kp ([3]; Globus pallidus): 19.3 ± 2.4 | Kp ([3]; Hippocampus): 27.3 ± 4 | Kp ([3]; Insular cortex): 42.3 ± 9.1 | Kp ([3]; Nucleus accumbens): 41.9 ± 7.8 | Kp ([3]; Occipital cortex): 39.3 ± 10.7 | Kp ([3]; Pons): 14.9 ± 4.1 | Kp ([3]; Putamen): 32.8 ± 5.2 | Kp ([3]; Temporal cortex): 37.9 ± 9.4 | Kp ([3]; Thalamus): 32.7 ± 1.9

Cc1cnccc1CN1CC(c2cc(F)c(F)c(F)c2)CC1=O (single isomer, unassigned) [^11C-3, 1-((3-methylpyridin-4-yl)methyl)-4-(3,4,5-trifluorophenyl) pyrrolidin-2-one]
fraction unbound [1]: 0.44 ± 0.01 | reduction in hippocampal VT ([4]; P=0.001): 28% | reduction in hippocampal SV2A binding (BPND) ([4]; P=0.005): 41% | decrease in BPND ([5]; cortical regions): 16%-20% | decrease in VT ([5]; cortical regions, listed as (R)-^11C-3): 19-23% and 19%-23% | decrease in BPND ([5]; putamen): 16% | decrease in VT ([5]; putamen): 15% | decrease in BPND ([5]; substantia nigra): 33% | decrease in VT ([5]; substantia nigra): 19% | peak uptake (standardized uptake value, SUV) [6]: 10-15 | time to peak uptake after injection [6]: 6 to 16 min | asymmetries in binding relative to 18F-FDG ([7]; TLE subjects with MTS): 2.3 fold | BPND asymmetry indices ([7]; hippocampus, nine TLE subjects with MTS): −38±21% | Binding potential (BPND) ([2]; Amygdala): 0.85 ± 0.34 | Binding potential (BPND) ([2]; Brainstem): 0.76 ± 0.21 | Binding potential (BPND) ([2]; Caudate nucleus): 2.40 ± 0.72 | Binding potential (BPND) ([2]; Cerebellum): 1.68 ± 0.31 | Binding potential (BPND) ([2]; Cingulate cortex): 3.17 ± 0.84 | Binding potential (BPND) ([2]; Frontal cortex): 3.18 ± 0.91 | Binding potential (BPND) ([2]; Globus pallidus): 1.10 ± 0.28 | Binding potential (BPND) ([2]; Hippocampus): 1.59 ± 0.39 | Binding potential (BPND) ([2]; Insular cortex): 3.12 ± 0.81 | Binding potential (BPND) ([2]; Nucleus accumbens): 3.04 ± 0.69 | Binding potential (BPND) ([2]; Occipital cortex): 2.97 ± 0.65 | Binding potential (BPND) ([2]; Pons): 0.75 ± 0.21 | Binding potential (BPND) ([2]; Putamen): 2.42 ± 0.63 | Binding potential (BPND) ([2]; Temporal cortex): 2.79 ± 0.61 | Binding potential (BPND) ([2]; Thalamus): 2.03 ± 0.62 | Uptake of radiotracer in blocking studies [2]: reduced to background levels | time to SUV peak in gray matter regions ([2]; rhesus monkey, in vivo, iv): slower

O=C1CC(c2cc(F)c(F)c(F)c2)CN1Cc1ccncc1F (stereo not drawn) [^18F-10, 1-((3-fluoropyridin-4-yl)methyl)-4-(3,4,5-trifluorophenyl)pyrrolidin-2-one]
fraction unbound [1]: 0.52 | Binding potential (BPND) ([2]; Amygdala): −0.03 | Binding potential (BPND) ([2]; Brainstem): 0.01 | Binding potential (BPND) ([2]; Caudate nucleus): 0.37 | Binding potential (BPND) ([2]; Cerebellum): 0.22 | Binding potential (BPND) ([2]; Cingulate cortex): 0.59 | Binding potential (BPND) ([2]; Frontal cortex): 0.46 | Binding potential (BPND) ([2]; Globus pallidus): 0.14 | Binding potential (BPND) ([2]; Hippocampus): 0.12 | Binding potential (BPND) ([2]; Insular cortex): 0.48 | Binding potential (BPND) ([2]; Nucleus accumbens): 0.43 | Binding potential (BPND) ([2]; Occipital cortex): 0.53 | Binding potential (BPND) ([2]; Pons): 0.04 | Binding potential (BPND) ([2]; Putamen): 0.39 | Binding potential (BPND) ([2]; Temporal cortex): 0.39 | Binding potential (BPND) ([2]; Thalamus): 0.19 | time to SUV peak in gray matter regions [2, 8]: ≤ 10 min | Kp ([3]; Amygdala): 9.8 | Kp ([3]; Brainstem): 10.2 | Kp ([3]; Caudate nucleus): 13.8 | Kp ([3]; Centrum semiovale): 10.1 | Kp ([3]; Cerebellum): 12.3 | Kp ([3]; Cingulate cortex): 16 | Kp ([3]; Frontal cortex): 14.7 | Kp ([3]; Globus pallidus): 11.5 | Kp ([3]; Hippocampus): 11.3 | Kp ([3]; Insular cortex): 14.9 | Kp ([3]; Nucleus accumbens): 14.4 | Kp ([3]; Occipital cortex): 15.5 | Kp ([3]; Pons): 10.5 | Kp ([3]; Putamen): 14 | Kp ([3]; Temporal cortex): 14 | Kp ([3]; Thalamus): 12
